System: MM.1S multiple myeloma cells
Test: Disseminated MM.1S multiple myeloma model
Type: in vivo, NSG mice
Conditions: Example 11
Experimental: Female NOD severe combined immune deficient (SCID) gamma (NSG) mice 8-9 weeks of age were inoculated with 5×10^6 multiple myeloma MM.1S cells into the tail vein. Randomization by body weight and start of treatment was initiated 7 days post tumor inoculation. The treatment groups are outlined in Table 18. All investigational test articles were formulated in 10 mM citrate pH 6.0, 10% sucrose. Groups 1-10 (n=6/group) were monitored for survival endpoint characterized by >20% body weight loss and clinical signs including lethargy, hind limb paralysis or moribundity. Groups 11-20 (n=3/group) were used for bone marrow harvest and analysis of tumor burden on day 28 post tumor cell inoculation. For all groups, body weights were monitored 1-2×/week.
Tumor burden was assessed and quantified by detection of hCD138 positive (hCD138+) cells in the bone marrow. Bone marrow cells from mouse femur and tibia were pooled and assessed for human CD138+ expression using the Alexa Fluor 647 mouse anti-human CD138 clone MI15 (BD Biosciences #562097) according to the manufacturer's protocol. […] Data was analyzed using Flowjo (Tree Star, Inc., Ashland, Oreg.).
Mean survival, survival delay, and tumor burden, during and at the study endpoint, were analyzed using a one-way analysis of variance (ANOVA) with Dunnett's multiple comparison test. […]

Molecule	effect on survival compared to vehicle control (3 or 10 mg/kg single IP)	mean survival (0.8 mg/kg q7dx2 IP) [days]
Daratumumab: MM standard of care agent, clinical grade	no significant effect on survival	–
CC(C)C[C@H](NC(=O)[C@H](Cc1ccccc1)NC(=O)c1cnccn1)B(O)O [Velcade]	–	40.6

— patent publication US20220362394A1, “ANTI-BCMA ANTIBODY CONJUGATES” (SUTRO BIOPHARMA, INC., priority 2019, published 2022)
